Assay results reported in paper PMC5362899, “Structural insights into the nucleotide base specificity of P2X receptors” (Scientific Reports, 2017).
Substitutions are numbered along the chain they refer to.

Columns and labels:
[1] = biological target: T1, zfP2X4 (ΔP2X4-C) T189V mutant (Danio rerio, UniProt F8W463, N187R/N78K/T189V); assay: ATR-FTIR difference spectroscopy, residual nucleotide after washing, zfP2X4 T189V; type: binding, zebrafish; details: 10 μM nucleotide, after 15–30 min washing, P-O stretching bands 1250–800 cm−1
T1 construct: EGFP (N); octa-histidine tag (N); made in house; host or cells: Sf9 insect cells
T1 sequence (F8W463 28-365 N78K/N187R/T189V limits assumed): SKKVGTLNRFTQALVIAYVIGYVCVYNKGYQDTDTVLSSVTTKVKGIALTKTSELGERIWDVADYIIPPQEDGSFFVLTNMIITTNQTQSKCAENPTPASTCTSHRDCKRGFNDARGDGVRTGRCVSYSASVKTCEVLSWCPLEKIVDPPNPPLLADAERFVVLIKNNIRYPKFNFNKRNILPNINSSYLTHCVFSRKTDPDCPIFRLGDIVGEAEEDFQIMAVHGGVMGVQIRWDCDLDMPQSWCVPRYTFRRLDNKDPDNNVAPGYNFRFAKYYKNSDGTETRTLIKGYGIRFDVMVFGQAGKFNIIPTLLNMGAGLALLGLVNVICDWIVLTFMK
Source text: (§1) To further investigate the nucleotide binding specificity of zfP2X4, we applied ligand-binding induced difference Attenuated total reflectance (ATR)-Fourier-transform infrared (FTIR) spectroscopy on the WT and conserved threonine mutants (T189S and T189V) of zfP2X4.
(§2) Figure 5 ATR-FTIR spectroscopic analysis of zfP2X4 for the ATP and CTP bindings. (A) The reduction of the ligand binding induced difference spectra in the ΔP2X4-C ^zfWT, ^zfT189S and ^zfT189V mutants around the P-O stretching region (1250–800 cm^−1) after washing treatment for 15–30 min. (B) The residual nucleotides after the washing treatment estimated from the ATR-FTIR analysis in (A).
(§3) The nucleotide binding affinity of zfP2X4 was analyzed by reduction of the band intensity after washing treatment (Fig. 5). The reduction of the P-O stretching bands between 1250–800 cm^−1 was monitored for ATP (Fig. 5A). […]
(§4) The perfusion-induced difference FTIR spectroscopy was performed as similarly to the previous studies. […] ATR-FTIR spectra of the samples were recorded at 25 °C and 2 cm^−1 resolution using a VERTEX 70 spectrometer (Bruker Optics) equipped with a liquid-nitrogen-cooled MCT detector. […] The obtained difference spectra were normalized based on the absolute absorbance of the amide I band at 1653 cm^−1, which well correlates with the quantities of the proteins on the ATR crystals. […]

[2] = biological target: T2, zfP2X4 (ΔP2X4-C) T189S mutant (Danio rerio, UniProt F8W463, N187R/N78K/T189S); assay: ATR-FTIR difference spectroscopy, residual nucleotide after washing, zfP2X4 T189S; type: binding, zebrafish; details: 10 μM nucleotide, after 15–30 min washing, P-O stretching bands 1250–800 cm−1
T2 construct: EGFP (N); octa-histidine tag (N); made in house; host or cells: Sf9 insect cells
T2 sequence (F8W463 28-365 N78K/N187R/T189S limits assumed): T1 sequence (F8W463 28-365 N78K/N187R/T189V limits assumed) with V162S
Source text: as §1, §2, §3, §4

Compound	residual nucleotide binding after washing [1]	residual nucleotide binding after washing [2]
Nc1ccn([C@@H]2O[C@H](COP(=O)(O)OP(=O)(O)OP(=O)(O)O)[C@@H](O)[C@H]2O)c(=O)n1 [CTP]	~ 30%	~ 30%
Nc1ncnc2c1ncn2[C@@H]1O[C@H](COP(=O)(O)OP(=O)(O)OP(=O)(O)O)[C@@H](O)[C@H]1O [ATP, Adenosine 5-triphosphate]	10%	~ 60%
